# From US11446299B2, “Carbazole EHop-016 derivatives as anticancer and anti-migratory agents” (UNIVERSITY OF PUERTO RICO, priority 2017, dated 2022)
# System: GFP-MDA-MB-231 cells
# Assay: Mammary tumor growth and metastasis in immunocompromised mice
# Type: in vivo
# Conditions: 1 mg/kg BW i.p., Monday to Friday, approximately 2 months
# Procedure: FIG. 18 (A-D). Effect of HV-118 on mammary tumor growth. Severe combined immune deficiency (SCID) mice were inoculated at the mammary fat pad with GFP-MDA-MB-231 cells and treated with 0 (Vehicle) or 1 mg/kg BW HV-118 (5× a wk). FIG. 18A. Upper panel, representative images and lower panel, average relative tumor growth on last day. FIG. 18B. Relative tumor growth as a function of days following HV-118 administration. Lungs and livers were removed at necropsy and imaged for fluorescent metastatic foci. FIG. 18C. Representative organs under fluorescence microscopy for 0 (Vehicle) and 1 mg/kg BW HV-118 treatment. FIG. 18D. […]
# Preliminary data supporting HV-118 as a potent inhibitor of Rac activation in breast cancer cells was confirmed. […] Tumor growth and metastasis were assessed by fluorescent imaging. HV-118 toxicity was also determined.
# An in vivo study was performed to assess HV-118 toxicity and test its effects in mammary tumor growth and metastasis. […] The effects of HV-118 on tumor growth were monitored weekly by in situ fluorescence image analysis (starting from day 1 of treatment). Mammary tumor growth was quantified using Image J software, as the pixel intensity (integrated density) determined from digital tracing of the fluorescent tumor area at each imaging session and calculated as a function of the fluorescence intensity on day one of treatment. […]
compound,measurement,value
"CCn1c2ccccc2c2cc(Nc3cc(C)nc(Cl)n3)ccc21 [HV-118, (2-Chloro-6-methyl-pyrimidin-4-yl)-(9-ethyl-9H-carbazol-3-yl)-amine]",reduction in metastasis to lung and liver,> 90%
same,reduction in tumor growth,30%
